# Experimental data published in patent US12503444B2, “Compound containing benzene ring and application thereof” (WUHAN LL SCIENCE AND TECHNOLOGY DEVELOPMENT CO., LTD., priority 2019, dated 2025).
# pIC50: −log10 of the molar value. Read-outs that look alike come from different tables or passages of the source.
# Biological target: T1, hP2X4 (human purinergic P2X receptor subtype 4) (Homo sapiens, UniProt Q99571)
# T1 sequence (Q99571 1-404 isoform Q99571-2): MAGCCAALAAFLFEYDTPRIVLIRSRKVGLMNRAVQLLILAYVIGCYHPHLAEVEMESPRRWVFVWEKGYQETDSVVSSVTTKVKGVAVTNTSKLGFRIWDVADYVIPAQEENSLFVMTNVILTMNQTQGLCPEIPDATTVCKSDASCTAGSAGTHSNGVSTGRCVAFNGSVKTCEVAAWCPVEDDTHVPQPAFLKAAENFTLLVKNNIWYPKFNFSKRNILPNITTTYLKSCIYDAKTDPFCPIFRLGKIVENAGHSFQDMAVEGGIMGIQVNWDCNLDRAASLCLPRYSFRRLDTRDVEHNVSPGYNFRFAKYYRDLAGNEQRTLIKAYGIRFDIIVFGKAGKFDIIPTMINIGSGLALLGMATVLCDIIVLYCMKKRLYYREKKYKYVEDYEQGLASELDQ
# Assay: FLIPR assay of intracellular calcium increase induced by activation of hP2X4 expressed in HEK293 cells (agonist BZ-ATP 2.5 μM)
# Type: cell-based
# Conditions: HEK293 cells stably expressing hP2X4, FLIPR, read-out: P2X4 IC50
# Method: The antagonist property of the compounds disclosed herein was determined using the FLIPR (fluorescence imaging plate reader) method, wherein the compounds are inhibitors for the intracellular calcium increase induced by activation of hP2X4 (human purinergic P2X receptor subtype 4, accession No. NM_001256796.2) expressed in HEK293 cells (human renal epithelial cell line, ATCC).
# HEK293 cells stably expressing hP2X4 were cultured in DMEM high glucose medium containing 10% FBS (fetal bovine serum, Biosera, FB-1058/500), 1% penicillin-streptomycin (Gibco, 15140-122) and 1 mg/mL G418 (CABIOCHE, 345810) in a cell incubator (37° C., […]). Cells at 400,000 cells/mL were seeded into a 384-well plate (10,000 cells/well) 18-24 h prior to the FLIPR experiment and then incubated overnight in a cell incubator. On the day of the experiment, the medium was discarded and the cells were washed in an FLIPR buffer (0.3 mL of probenecid (Thermo, P36400), 0.6 mL of 1 M HEPES (Invitrogen, 15630080) and 29.1 mL of HBSS (Invitrogen, 14065056) per 30 mL of the buffer). Each well was added with 20 μL of 0.5× Calcium 6 fluorescent dye (Molecular Devices, R8190) and then the cells were subjected to dye-loading incubation at 37° C. for 1.5 h. Each well was added with 10 μL of respective test compound (dissolved in DMSO at a concentration of 10 mM and serially diluted with buffer) or vehicle and the mixture was equilibrated for 30 min at room temperature. The cell plate was then placed in the FLIPR for baseline fluorescence measurements (excitation at 485 nm and emission at 525-535 nm). An agonist (BZ-ATP (Sigma, B6396) at a final concentration of 2.5 μM) or a vehicle (ultrapure water) was then added at 10 μL/well, fluorescence values were measured for 2 min at 1-second intervals, and finally the output fluorescence counts were analyzed.
SMILES,pIC50 (class symbols),pIC50 (numeric values)
"CC(c1ccc(F)cc1)n1cc2c(S(N)(=O)=O)cc(NC(=O)Cc3ccccc3Cl)cc2n1 (stereo not drawn) [Compound 40-A, 2-(2-chlorophenyl)-N-(2-(1-(4-fluorophenyl)ethyl)-4-sulfamoyl-2H-indazol-6-yl)acetamide]",7.30 to 8.00,
"CC(C)C(=O)n1cc2c(S(N)(=O)=O)cc(NC(=O)Cc3ccccc3Cl)cc2n1 [Compound 41, 2-(2-chlorophenyl)-N-(2-isobutyryl-4-sulfamoyl-2H-indazol-6-yl)acetamide]",7.30 to 8.00,
"NS(=O)(=O)c1cc(NC(=O)Cc2ccccc2Cl)cc2nn(C(=O)c3ccc(F)cc3)cc12 [Compound 42-A, 2-(2-chlorophenyl)-N-(2-(4-fluorobenzoyl)-4-sulfamoyl-2H-indazol-6-yl)acetamide]",7.30 to 8.00,
"NS(=O)(=O)c1cc(NC(=O)Cc2ccccc2Cl)cc2c1cnn2C(=O)c1ccc(F)cc1 [Compound 42-B, 2-(2-chlorophenyl)-N-(1-(4-fluorobenzoyl)-4-sulfamoyl-1H-indazol-6-yl)acetamide]",5.30 to 6.70,
"NS(=O)(=O)c1cc(NC(=O)Cc2ccccc2Cl)cc2c1cnn2C(F)F [Compound 43, 2-(2-chlorophenyl)-N-(1-(difluoromethyl)-4-sulfamoyl-1H-indazol-6-yl)acetamide]",7.30 to 8.00,
"NS(=O)(=O)c1cc(NC(=O)Cc2ccccc2Cl)cc2c1cnn2-c1ccc(Cl)cc1 [Compound 45, 2-(2-chlorophenyl)-N-(1-(4-chlorophenyl)-4-sulfamoyl-1H-indazol-6-yl)acetamide]",7.30 to 8.00,
"CN(C)c1cccc(Cn2ncc3c(S(N)(=O)=O)cc(NC(=O)Cc4ccccc4Cl)cc32)c1 [Compound 46, 2-(2-chlorophenyl)-N-(1-(3-(dimethylamino)benzyl)-4-sulfamoyl-1H-indazol-6-yl)acetamide]",7.30 to 8.00,
"NS(=O)(=O)c1cc(NC(=O)Cc2ccccc2Cl)cc2cn(CCO)nc12 [Compound 48-A, 2-(2-chlorophenyl)-N-(2-(2-hydroxyethyl)-7-sulfamoyl-2H-indazol-5-yl)acetamide]",5.30 to 6.70,
"NS(=O)(=O)c1cc(NC(=O)Cc2ccccc2Cl)cc2cnn(CCO)c12 [Compound 48-B, 2-(2-chlorophenyl)-N-(1-(2-hydroxyethyl)-7-sulfamoyl-1H-indazol-5-yl)acetamide]",5.30 to 6.70,
"NS(=O)(=O)c1cc(NC(=O)Cc2ccccc2Cl)cc2cn(C(F)F)nc12 [Compound 49, 2-(2-chlorophenyl)-N-(2-(difluoromethyl)-7-sulfamoyl-2H-indazol-5-yl)acetamide]",,7.05
"NS(=O)(=O)c1cc(NC(=O)Cc2ccccc2Cl)cc2cnn(C(F)F)c12 [Compound 50, 2-(2-chlorophenyl)-N-(1-(difluoromethyl)-7-sulfamoyl-1H-indazol-5-yl)acetamide]",6.70 to 7.30,
"N#Cc1nc2c(S(N)(=O)=O)cc(NC(=O)Cc3ccccc3Cl)cc2[nH]1 [Compound 51, 6-(2-chlorophenylacetamide)-2-nitrile-4-sulfonamide benzimidazole]",,6.03
"NS(=O)(=O)c1cc(NC(=O)Cc2ccccc2Cl)cc2nc(C3CC3)[nH]c12 [Compound 52, 2-(2-chlorophenyl)-N-(2-cyclopropyl-7-sulfamoyl-1H-benzo[d]imidazol-5-yl)acetamide]",5.30 to 6.70,
"NS(=O)(=O)c1cc(NC(=O)Cc2ccccc2Cl)cc2nc(-c3ccc(Cl)cc3)[nH]c12 [Compound 54, 2-(2-chlorophenyl)-N-(2-(4-chlorophenyl)-7-sulfamoyl-1H-benzo[d]imidazol-5-yl)acetamide]",5.30 to 6.70,
"NS(=O)(=O)c1cc(NC(=O)Cc2ccccc2Cl)cc2c1ncn2-c1ccc(Cl)cc1 [Compound 55, 2-(2-chlorophenyl)-N-(1-(4-chlorophenyl)-4-sulfamoyl-1H-benzo[d]imidazol-6-yl)acetamide]",7.30 to 8.00,
"NS(=O)(=O)c1cc(NC(=O)Cc2ccccc2Cl)cc2[nH]ccc12 [Compound 56, 2-(2-chlorophenyl)-N-(4-sulfamoyl-1H-indol-6-yl)acetamide]",7.30 to 8.00,
"CC(C)C(=O)n1ncc2c(S(N)(=O)=O)cc(NC(=O)Cc3ccccc3Cl)cc21 [Compound 58, 2-(2-chlorophenyl)-N-(1-isobutyryl-4-sulfamoyl-1H-indazol-6-yl)acetamide]",5.30 to 6.70,
"NS(=O)(=O)c1cc(NC(=O)Cc2ccccc2Cl)cc2nn(C3COC3)cc12 [Compound 59, 2-(2-chlorophenyl)-N-(2-(oxetan-3-yl)-4-sulfamoyl-2H-indazol-6-yl)acetamide]",5.30 to 6.70,
"NS(=O)(=O)c1cc(NC(=O)Cc2ccccc2Cl)cc2c1c(Cl)nn2-c1ccc(F)cc1 [Compound 75, N-(3-chloro-1-(4-fluorophenyl)-4-sulfamoyl-1H-indazol-6-yl)-2-(2-chlorophenyl)acetamide]",5.30 to 6.70,
COc1ccc(Cn2cc3c(S(N)(=O)=O)cc(NC(=O)Cc4ccccc4Cl)cc3n2)cn1 [Compound 94],≥ 8.00,
"Nc1ccc(Cn2cc3c(S(N)(=O)=O)cc(NC(=O)Cc4ccccc4Cl)cc3n2)cc1 [Compound 95, N-(2-(4-aminobenzyl)-4-sulfamoyl-2H-indazol-6-yl)-2-(2-chlorophenyl)acetamide]",≥ 8.00,
"Nc1ccc(Cn2ncc3c(S(N)(=O)=O)cc(NC(=O)Cc4ccccc4Cl)cc32)cc1 [Compound 95A, N-(1-(4-aminobenzyl)-4-sulfamoyl-1H-indazol-6-yl)-2-(2-chlorophenyl)acetamide]",≥ 8.00,
NS(=O)(=O)c1cc(NC(=O)Cc2ccccc2Cl)cc2nn(CC3CCC(O)CC3)cc12 (stereo not drawn) [Compound 108],6.70 to 7.30,
"NS(=O)(=O)c1cc(NC(=O)Cc2ncccc2Cl)cc2nn(C(F)F)cc12 [Compound 113, 2-(3-chloropyridin-2-yl)-N-(2-(difluoromethyl)-4-sulfamoyl-2H-indazol-6-yl)acetamide]",5.30 to 6.70,
"COc1ccccc1CC(=O)Nc1cc(S(N)(=O)=O)c2cn(C(F)F)nc2c1 [Compound 115, N-(2-(difluoromethyl)-4-sulfamoyl-2H-indazol-6-yl)-2-(2-methoxyphenyl)acetamide]",5.30 to 6.70,

# Results, then the molecule that gave them:
pIC50 (class symbols),pIC50 (numeric values),SMILES
≥ 8.00,,"CC(c1ccc(F)cc1)n1ncc2c(S(N)(=O)=O)cc(NC(=O)Cc3ccccc3Cl)cc21 (stereo not drawn) [Compound 40-B, 2-(2-chlorophenyl)-N-(1-(1-(4-fluorophenyl)ethyl)-4-sulfamoyl-1H-indazol-6-yl)acetamide]"
≥ 8.00,,COc1ccc(Cn2cc3c(S(N)(=O)=O)cc(NC(=O)Cc4ccccc4Cl)cc3n2)cc1F [Compound 82]
≥ 8.00,,"COc1ccc(Cn2ncc3c(S(N)(=O)=O)cc(NC(=O)Cc4ccccc4Cl)cc32)c(F)c1 [Compound 83, 2-(2-chlorophenyl)-N-(1-(2-fluoro-4-methoxybenzyl)-4-sulfamoyl-1H-indazol-6-yl)acetamide]"
≥ 8.00,,COc1ccc(Cn2cc3c(S(N)(=O)=O)cc(NC(=O)Cc4ccccc4Cl)cc3n2)c(F)c1 [Compound 85]
≥ 8.00,,COc1ccc(Cn2cc3c(S(N)(=O)=O)cc(NC(=O)Cc4ccccc4Cl)cc3n2)c(Cl)c1 [Compound 86]
≥ 8.00,,COc1ccc(Cn2cc3c(S(N)(=O)=O)cc(NC(=O)Cc4ccccc4Cl)cc3n2)c(Br)c1 [Compound 87]
≥ 8.00,,"NS(=O)(=O)c1cc(NC(=O)Cc2ccccc2Cl)cc2c1cnn2Cc1ccc(Cl)cc1 [Compound 89A, N-(1-(4-chlorobenzyl)-4-sulfamoyl-1H-indazol-6-yl)-2-(2-chlorophenyl)acetamide]"
≥ 8.00,,"NS(=O)(=O)c1cc(NC(=O)Cc2ccccc2Cl)cc2nn(Cc3ccc(C(F)(F)F)cc3)cc12 [Compound 90, 2-(2-chlorophenyl)-N-(4-sulfamoyl-2-(4-(trifluoromethyl)benzyl)-2H-indazol-6-yl)acetamide]"
≥ 8.00,,"Cc1ccc(Cn2cc3c(S(N)(=O)=O)cc(NC(=O)Cc4ccccc4Cl)cc3n2)cc1 [Compound 92, 2-(2-chlorophenyl)-N-(2-(4-methylbenzyl)-4-sulfamoyl-2H-indazol-6-yl)acetamide]"
≥ 8.00,,"Cc1ccc(Cn2ncc3c(S(N)(=O)=O)cc(NC(=O)Cc4ccccc4Cl)cc32)cc1 [Compound 92A, 2-(2-chlorophenyl)-N-(1-(4-methylbenzyl)-4-sulfamoyl-1H-indazol-6-yl)acetamide]"
≥ 8.00,,COc1ccc(Cn2cc3c(S(N)(=O)=O)cc(NC(=O)Cc4ccccc4Cl)cc3n2)nc1 [Compound 93]
